# “Also recorded” adds a separate entry of the source.
# System: wild type human HBV DNA polymerase
# Experiment: In vitro priming activity assay of human HBV DNA polymerase (anti-priming testing, nitrocellulose membrane filtration)
# Type: biochemical, human hepatitis B virus (HBV)
# Conditions: in vitro translated wild type enzyme in wheat germ lysate; [α-32P] dTTP; corresponding nucleotide replaced with the analog; 30° C. for 30 min; FIG. 6
# Experimental: Unless otherwise noted, the polymerase activity assay was conducted in solution containing 100 mM Tris HCl (pH 7.5), 10 mM MgCl2, 30 mM NaCl, 10% glycerol, 4 mM dithiothreitol, 100 μM of each unlabeled deoxyribonucleotide triphosphates (dATP, dCTP and dGTP) and 5 μCi [α-^32P] dTTP. The reactions were incubated at 30° C. for 30 min, after which time a 5 μl aliquot was added to 85 μl of tricine sodium dodecyl sulfate-polyacrylamide gel electrophoresis (SDS-PAGE) sample buffer (Novex, U.S.A.), and 10 μl were analyzed on 10% SDS-PAGE. Following electrophoresis, gels were fixed by soaking in 10% methanol plus 10% acetic acid and dried under vacuum. Dried gels were exposed to X-ray film and signals quantified by laser densitometry.
# Screening for inhibitors of human HBV DNA polymerase would provide novel therapeutic agents for HBV infection, as effective inhibition of the polymerase activity will lead to inhibition of HBV viral replication. The simplified activity assay reported in the present invention would allow faster analysis of the inhibitory effects of newly found molecules on DNA polymerase of variant HBV carrying mutations on the major surface antigen. Briefly, a candidate inhibitor was first incubated with the wild type human HBV DNA polymerase that was PCR amplified and in vitro translated as reported in the present invention. The incubation was in the presence of [α-^32P] dTTP and with other conditions identical as above-mentioned. Its inhibitory effect may be determined either by laser densitometry following SDS-PAGE analysis, or by measuring the amount of radiolabeled HBV DNA polymerase bound to nitrocellulose membrane after filtration. […] Further assay on the potential inhibitory effect derived from the above-mentioned assay may then be extended to other systems such as HBV-producing cell lines and transgenic animal model.
# Depending on the type of label used, detection of the labeled hybrid HBV DNA polymerase product may be achieved by any appropriate means. Generally this may include a step of separating labeled mononucleotide from labeled human HBV DNA polymerase. […] When the label is a radiolabel as is the case in the simplified assay reported in the present invention, then the amount of radioactivity bound to the filter may be quantified using a plate reading scintillation counter.
# In the present invention, the following nucleotide analogs capable of inhibiting the HBV DNA polymerase activity may be assayed for their anti-priming activity. […] The remaining radiolabeled human HBV DNA polymerase bound to the nitrocellulose membrane is then measured quantified using a plate reading scintillation counter.
row,SMILES,"anti-priming effect (radiolabeled human HBV DNA polymerase remained on nitrocellulose membrane, as measured by cpm, compared with the control)"
1,Cc1cn([C@H]2CC[C@@H](COP(=O)(O)OP(=O)(O)OP(=O)(O)O)O2)c(=O)[nH]c1=O [ddTTP],no obvious anti-priming effect; also recorded: no anti-priming activity is observed
2,Nc1nc2c(ncn2[C@H]2CC[C@@H](COP(=O)(O)OP(=O)(O)OP(=O)(O)O)O2)c(=O)[nH]1 [ddGTP],inhibitory effect is observed; also recorded: significantly lower amount
3,Nc1ccn([C@H]2CC[C@@H](COP(=O)(O)OP(=O)(O)OP(=O)(O)O)O2)c(=O)n1 [ddCTP],inhibitory effect is observed; also recorded: significantly lower amount
4,Nc1ncnc2c1ncn2[C@H]1CC[C@@H](COP(=O)(O)OP(=O)(O)OP(=O)(O)O)O1 [ddATP],no obvious anti-priming effect; also recorded: no anti-priming activity is observed
